PubChem BioAssay (NCI)
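All cell lines were grown in 96-well plates and treated with compound for 48 hours. TGI is the concentration that stops growth completely.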

Experiments:
Assay in all cases: inhibition of tumour cell growth, NCI panel, 48 h
CAKI-1 renal = tested on: CAKI-1 renal
SN12C renal = tested on: SN12C renal
OVCAR-8 ovarian = tested on: OVCAR-8 ovarian
IGROV1 ovarian = tested on: IGROV1 ovarian
OVCAR-5 ovarian = tested on: OVCAR-5 ovarian
HCT-116 colon = tested on: HCT-116 colon
M14 melanoma = tested on: M14 melanoma
SK-MEL-28 melanoma = tested on: SK-MEL-28 melanoma
PC-3 prostate = tested on: PC-3 prostate
A549 NSCLC = tested on: A549 NSCLC
A498 renal = tested on: A498 renal
KM12 colon = tested on: KM12 colon
NCI-H23 lung = tested on: NCI-H23 lung
MCF7 breast = tested on: MCF7 breast
NCI-H226 lung = tested on: NCI-H226 lung
HT29 colon = tested on: HT29 colon
DU-145 prostate = tested on: DU-145 prostate
K-562 leukemia = tested on: K-562 leukemia
NCI/ADR-RES ovarian = tested on: NCI/ADR-RES ovarian
CCRF-CEM leukemia = tested on: CCRF-CEM leukemia
UO-31 renal = tested on: UO-31 renal
MALME-3M melanoma = tested on: MALME-3M melanoma
OVCAR-4 ovarian = tested on: OVCAR-4 ovarian
MDA-MB-231 breast = tested on: MDA-MB-231 breast
NCI-H460 lung = tested on: NCI-H460 lung
SR leukemia = tested on: SR leukemia
RPMI-8226 leukemia = tested on: RPMI-8226 leukemia
HS 578T breast = tested on: HS 578T breast
786-0 renal = tested on: 786-0 renal
SF-268 CNS = tested on: SF-268 CNS
SNB-75 CNS = tested on: SNB-75 CNS
MDA-N = tested on: MDA-N
HOP-92 NSCLC = tested on: HOP-92 NSCLC
SF-539 CNS = tested on: SF-539 CNS
SNB-19 CNS = tested on: SNB-19 CNS
LOX IMVI melanoma = tested on: LOX IMVI melanoma
RXF 393 renal = tested on: RXF 393 renal
UACC-62 melanoma = tested on: UACC-62 melanoma
MDA-MB-435 = tested on: MDA-MB-435
SK-MEL-5 melanoma = tested on: SK-MEL-5 melanoma
EKVX NSCLC = tested on: EKVX NSCLC
HCT-15 colon = tested on: HCT-15 colon
BT-549 breast = tested on: BT-549 breast
SK-MEL-2 melanoma = tested on: SK-MEL-2 melanoma
TK-10 renal = tested on: TK-10 renal
SK-OV-3 ovarian = tested on: SK-OV-3 ovarian
OVCAR-3 ovarian = tested on: OVCAR-3 ovarian
HOP-62 NSCLC = tested on: HOP-62 NSCLC
T-47D breast = tested on: T-47D breast
HL-60(TB) leukemia = tested on: HL-60(TB) leukemia
NCI-H522 lung = tested on: NCI-H522 lung
MOLT-4 leukemia = tested on: MOLT-4 leukemia
COLO 205 colon = tested on: COLO 205 colon
SF-295 CNS = tested on: SF-295 CNS
HCC-2998 colon = tested on: HCC-2998 colon
UACC-257 melanoma = tested on: UACC-257 melanoma
U251 CNS = tested on: U251 CNS
ACHN renal = tested on: ACHN renal

Measured: TGI

CCOC(=O)c1cc(-n2nnc3ccccc32)cn1C
> 10 µM: all assays above
